Experimental data from ChEMBL document CHEMBL3046478, “Evaluating anti-Toxoplasma gondii activity of new serie of phenylsemicarbazone and phenylthiosemicarbazones in vitro” (Med Chem Res, 2013).
The source made the active and inactive calls. The rule behind the calls is not given here.

Assays:
[1] = Cytotoxicity against Chlorocebus aethiops (African green monkey) Vero cells infected with Toxoplasma gondii RH tachyzoites assessed as cell death and morphological alterations after 24 hr by microscopic analysis; type: cell-based; conditions: chlorocebus sabaeus, read-out: LD50
Toxoplasma gondii [2] = assay: Antiparasitic activity against Toxoplasma gondii RH tachyzoites infected African green monkey Vero cells assessed as mortality treated 24 hr after parasite infection measured after 24 hr by Giemsa staining based microscopic analysis; type: functional; conditions: read-out: LD50 (the source's name)
Vero [3] = assay: Cytotoxicity against Chlorocebus aethiops (African green monkey) Vero cells infected with Toxoplasma gondii RH tachyzoites assessed as cell death and morphological alterations at 1 mM after 24 hr by microscopic analysis; type: cell-based; conditions: chlorocebus sabaeus, 1000 µM
Vero [4] = assay: Cytotoxicity against Chlorocebus aethiops (African green monkey) Vero cells infected with Toxoplasma gondii RH tachyzoites assessed as cell death and morphological alterations at 0.01 mM after 24 hr by microscopic analysis; type: cell-based; conditions: chlorocebus sabaeus, 10 µM
Vero [5] = assay: Cytotoxicity against Chlorocebus aethiops (African green monkey) Vero cells infected with Toxoplasma gondii RH tachyzoites assessed as cell death and morphological alterations at 0.5 mM after 24 hr by microscopic analysis; type: cell-based; conditions: chlorocebus sabaeus, 500 µM
Toxoplasma gondii [6] = assay: Antiparasitic activity against Toxoplasma gondii RH tachyzoites infected African green monkey Vero cells assessed as reduction in number of intracellular parasites at 0.1 mM treated 24 hr after parasite infection measured after 24 hr by Giemsa staining based microscopic analysis; type: functional, organism-based
Toxoplasma gondii [7] = assay: Antiparasitic activity against Toxoplasma gondii RH tachyzoites infected African green monkey Vero cells assessed as reduction in number of intracellular parasites at 0.01 mM treated 24 hr after parasite infection measured after 24 hr by Giemsa staining based microscopic analysis; type: functional
Toxoplasma gondii [8] = assay: Antiparasitic activity against Toxoplasma gondii RH tachyzoites infected African green monkey Vero cells assessed as reduction in number of infected Vero cells at 0.01 mM treated 24 hr after parasite infection measured after 24 hr by Giemsa staining based microscopic analysis; type: functional
Toxoplasma gondii [9] = assay: Antiparasitic activity against Toxoplasma gondii RH tachyzoites infected African green monkey Vero cells assessed as reduction in number of intracellular parasites at 1 mM treated 24 hr after parasite infection measured after 24 hr by Giemsa staining based microscopic analysis; type: functional, organism-based

SMILES | CC50 at 24 h [1] [µM] | LC50 (Toxoplasma gondii [2]) [µM] | Activity (Vero [3]) | Activity (Vero [4]) | Activity (Vero [5]) | inhibition (Toxoplasma gondii [6]) | inhibition at 10 µM (Toxoplasma gondii [7]) [%] | inhibition at 10 µM (Toxoplasma gondii [8]) [%] | inhibition (Toxoplasma gondii [9])
Nc1ccc(S(=O)(=O)Nc2ncccn2)cc1 [SULFADIAZINE] | > 10000 | 6000 | – | – | – | – | – | – | –
COc1cc(O)cc(OC)c1/C=N/NC(=S)Nc1ccccc1 | 700 | 200 | 100% | Non-toxic | 50% | – | – | – | –
O=C(N/N=C/c1cc(O)c(O)cc1O)Nc1ccccc1 | 300 | 6 | Toxic | Non-toxic | Toxic | Active | 82 | – | –
COc1cc(O)cc(OC)c1/C=N/NC(=O)Nc1ccccc1 | > 1000 | 500 | – | Non-toxic | – | – | – | – | –
O=C(N/N=C/c1ccc(O)c(O)c1O)Nc1ccccc1 | 300 | 200 | Toxic | Non-toxic | Toxic | – | – | – | –
Oc1ccc(/C=N/NC(=S)Nc2ccccc2)c(O)c1O | 400 | 30 | Toxic | Non-toxic | Toxic | – | – | – | –
Oc1cc(O)c(/C=N/NC(=S)Nc2ccccc2)cc1O | 300 | 80 | Toxic | Non-toxic | Toxic | – | – | – | –
O=C(/N=C/c1ccc(O)c(O)c1O)NNc1ccccc1 | 70 | 20 | Toxic | Non-toxic | Toxic | – | – | 50 | –
O=C(/N=C/c1cc(O)c(O)cc1O)NNc1ccccc1 | 400 | 300 | Toxic | Non-toxic | Toxic | – | – | – | –
COc1cc(O)cc(OC)c1/C=N/C(=O)NNc1ccccc1 | > 1000 | 600 | – | Non-toxic | – | – | – | – | Active
